Results published in BindingDB's records for doi:10.1021/bi00419a019 (University of Wisconsin, 1988).

Molecular target: T1, Aminopeptidase B (Mus musculus, UniProt Q8VCT3)
T1 sequence (Q8VCT3 whole entry): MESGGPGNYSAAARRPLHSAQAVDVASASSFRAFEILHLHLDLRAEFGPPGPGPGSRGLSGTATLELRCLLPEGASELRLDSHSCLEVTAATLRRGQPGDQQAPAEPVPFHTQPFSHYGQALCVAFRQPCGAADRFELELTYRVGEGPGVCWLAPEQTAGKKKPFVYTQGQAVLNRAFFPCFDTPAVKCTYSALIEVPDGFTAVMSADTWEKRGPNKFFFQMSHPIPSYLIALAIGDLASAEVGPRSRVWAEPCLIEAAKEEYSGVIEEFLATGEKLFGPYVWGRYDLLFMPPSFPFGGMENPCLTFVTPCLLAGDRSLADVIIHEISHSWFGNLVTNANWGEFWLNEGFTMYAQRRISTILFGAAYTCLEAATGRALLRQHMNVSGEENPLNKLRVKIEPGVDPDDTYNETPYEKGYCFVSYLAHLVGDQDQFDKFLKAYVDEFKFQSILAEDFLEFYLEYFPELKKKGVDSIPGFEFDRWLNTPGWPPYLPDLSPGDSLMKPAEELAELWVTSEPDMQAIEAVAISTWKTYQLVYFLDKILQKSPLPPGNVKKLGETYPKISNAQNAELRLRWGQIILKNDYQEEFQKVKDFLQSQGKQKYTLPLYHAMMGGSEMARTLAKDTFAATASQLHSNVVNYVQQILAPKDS

IC50: 160 µM
SMILES: CC(C)C[C@H](NC(=O)[C@@H](O)[C@H](N)Cc1ccccc1)C(=O)O
